# Read-outs that look alike come from different tables or passages of the source.
# Columns and labels:
# [1] = log P by HPLC on reversed-phase column (EEC Directive 79/831 Annex V.A8); assay type: physicochemical; details: reversed-phase HPLC column (C18); pH 7.8, 0.001 molar aqueous ammonium bicarbonate/acetonitrile, 55° C.; read-out: log P (neutral)
# Description: The log P values are measured according to EEC Directive 79/831 Annex V.A8 by HPLC (high-performance liquid chromatography) on a reversed-phase column (C 18). Temperature: 55° C.
# The LC-MS determination in the neutral range is effected at pH 7.8 with 0.001 molar aqueous ammonium bicarbonate solution and acetonitrile as mobile phases; linear gradient from 10% acetonitrile to 95% acetonitrile. Called log P (neutral) in the table.
# Calibration is carried out using unbranched alkan-2-ones (having 3 to 16 carbon atoms) with known Log P values (Log P values determined on the basis of the retention times by linear interpolation between two successive alkanones).
# [2] = test system: Myzus persicae; assay: Myzus persicae oral test; assay type: in vivo; details: 120 h, read-out: efficacy
# Description: Myzus persicae Oral Test • Solvent: 100 parts by weight of acetone
# To produce a suitable preparation of active compound, 1 part by weight of active compound is dissolved using the specified parts by weight of solvent and made up with water until the desired concentration is attained.
# 50 μl of the active compound preparation are transferred into microtitre plates and made up to a final volume of 200 μl with 150 μl of IPL41 insect medium (33%+15% sugar). Subsequently, the plates are sealed with parafilm, which a mixed population of green peach aphids (Myzus persicae) within a second microtitre plate is able to puncture and imbibe the solution through.
# (§1) After 5 days, the efficacy in % is determined. 100% means that all the aphids have been killed; 0% means that no aphids have been killed.
# [3] = test system: Myzus persicae; assay: Myzus persicae spray test (Chinese cabbage leaf discs); assay type: in vivo; details: foliar, 120 h, read-out: efficacy
# Description: Myzus persicae Spray Test • Solvent: 78 parts by weight of acetone • 1.5 parts by weight of dimethylformamide • Emulsifier: alkylaryl polyglycol ether
# (§2) To produce a suitable active compound preparation, 1 part by weight of active compound is dissolved using the stated parts by weight of solvent and made up with water containing an emulsifier concentration of 1000 ppm until the desired concentration is attained. To produce further test concentrations, the formulation is diluted with emulsifier-containing water.
# Discs of Chinese cabbage leaves (Brassica pekinensis) infested by all stages of the green peach aphid (Myzus persicae) are sprayed with an active compound formulation of the desired concentration.
# as §1
# [4] = test system: Aphis gossypii; assay: Aphis gossypii spray test (APHIGO); assay type: in vivo; details: 144 h, 6 dat, read-out: % efficacy
# Description: Aphis gossypii Spray Test (APHIGO) • Solvent: 14 parts by weight of dimethylformamide • Emulsifier: alkylaryl polyglycol ether
# as §2, with “water. If the addition of ammonium salts or/and penetrants is required, these are each added in a concentration of 1000 ppm to the formulation solution.” for “water.”
# Cotton plants (Gossypium hirsutum) heavily infested by the cotton aphid (Aphis gossypii) are sprayed with an active compound formulation of the desired concentration.
# After the desired time, the kill in % is determined. 100% means that all the aphids have been killed; 0% means that no aphids have been killed.
# [5] = test system: Myzus persicae; assay: Myzus persicae spray test (MYZUPE S), bell pepper plants; assay type: in vivo; details: 144 h, 6 dat, read-out: % efficacy
# Description: Myzus persicae—Spray Test (MYZUPE S) • Solvent: 14 parts by weight of dimethylformamide • Emulsifier: alkylaryl polyglycol ether
# as §2, with “water. If the addition of ammonium salts or/and penetrants is required, these are each added in a concentration of 1000 ppm to the formulation solution.” for “water.”
# Bell pepper plants (Capsicum annuum) severely infested with the green peach aphid (Myzus persicae) are treated by spraying with the active compound formulation in the desired concentration.
# After the desired time, the kill in % is determined. 100% means that all the animals have been killed; 0% means that no animals have been killed.
# [6] = test system: Myzus persicae; assay: Myzus persicae drench test (MYZUPE D), savoy cabbage; assay type: in vivo; details: soil, 240 h, 10 dat, read-out: % efficacy
# Description: Myzus persicae—Drench Test (MYZUPE D) • Solvent: 7 parts by weight of dimethylformamide • Emulsifier: 2 parts by weight of alkylaryl polyglycol ether
# To produce a suitable active compound preparation, 1 part by weight of active compound is mixed with the specified amounts of solvent and emulsifier, and the concentrate is diluted with water to the desired concentration, it being necessary to include the volume of soil which is drenched in the calculation. It should be ensured that a concentration of 40 ppm of emulsifier in the soil is not exceeded. To produce further test concentrations, water is used for dilution.
# Savoy cabbage (Brassica oleracea) in pots with soil and infested by all stages of the green peach aphid (Myzus persicae) is watered with an active compound preparation of the desired concentration.
# After the desired period of time, the efficacy in % is determined. 100% means that all the aphids have been killed; 0% means that no aphids have been killed.
# [7] = test system: Nilaparvata lugens; assay: Nilaparvata lugens spray test (NILALU); assay type: in vivo; details: 96 h, 4 dat, read-out: % efficacy
# Description: Nilaparvata lugens—Spray Test (NILALU) • Solvent: 52.5 parts by weight of acetone • 7 parts by weight of dimethylformamide • Emulsifier: alkylaryl polyglycol ether
# as §2, with “water. If the addition of ammonium salts or/and penetrants is required, these are each added in a concentration of 1000 ppm to the formulation solution.” for “water.”
# Rice plants (Oryza sativa) are sprayed with an active ingredient formulation of the desired concentration and then populated with larvae of the brown planthopper (Nilaparvata lugens).
# After the desired period of time, the efficacy in % is determined. 100% means that all of the planthoppers have been killed; 0% means that none of the planthoppers have been killed.
# [8] = test system: Phaedon cochleariae; assay: Phaedon cochleariae spray test; assay type: in vivo; details: 168 h, read-out: efficacy; for pest or weed control at 20 g/ha: application rate 20 g/ha
# Description: Phaedon cochleariae—Spray Test • Solvent: 78.0 parts by weight of acetone • 1.5 parts by weight of dimethylformamide • Emulsifier: alkylaryl polyglycol ether
# as §2
# Discs of Chinese cabbage leaves (Brassica pekinensis) are sprayed with an active compound formulation of the desired concentration and, after drying, populated with larvae of the mustard beetle (Phaedon cochleariae).
# After 7 days, the efficacy in % is determined. 100% means that all the beetle larvae have been killed; 0% means that no beetle larvae have been killed.
# [9] = test system: Ctenocephalides felis; assay: Ctenocephalides felis oral test; assay type: in vivo; details: application rate 100 ppm in citrated cattle blood, after 2 days
# Description: Ctenocephalides felis—Oral Test • Solvent: dimethyl sulfoxide
# To produce a suitable active compound formulation, 10 mg of active compound are mixed with 0.5 ml of dimethyl sulfoxide. Dilution with citrated cattle blood gives the desired concentration.
# About 20 unfed adult cat fleas (Ctenocephalides felis) are placed into a chamber which is closed at the top and bottom with gauze. A metal cylinder whose bottom end is closed with parafilm is placed onto the chamber. The cylinder contains the blood/active compound formulation, which can be imbibed by the fleas through the parafilm membrane.
# After 2 days, the kill in % is determined. 100% means that all of the fleas have been killed; 0% means that none of the fleas have been killed.
# [10] = test system: Lucilia cuprina; assay: Lucilia cuprina test; assay type: in vivo; details: application rate 100 ppm, L1 larvae, after 2 days
# Description: Lucilia cuprina Test • Solvent: dimethyl sulfoxide
# To produce a suitable active compound formulation, 10 mg of active compound are mixed with 0.5 ml of dimethyl sulfoxide, and the concentrate is diluted with water to the desired concentration.
# About 20 L1 larvae of the Australian sheep blowfly (Lucilia cuprina) are transferred into a test vessel containing minced horsemeat and the active compound formulation of the desired concentration.
# After 2 days, the kill in % is determined. 100% means that all the larvae have been killed; 0% means that no larvae have been killed.
# [11] = test system: Spodoptera frugiperda; assay: Spodoptera frugiperda spray test; assay type: in vivo; details: application rate 100 g/ha, after 7 days
# Description: Spodoptera frugiperda—Spray Test • Solvent: 78.0 parts by weight of acetone • 1.5 parts by weight of dimethylformamide • Emulsifier: alkylaryl polyglycol ether
# as §2
# Leaf discs of maize (Zea mays) are sprayed with an active compound formulation of the desired concentration and, after drying, populated with caterpillars of the fall armyworm (Spodoptera frugiperda).
# After 7 days, the efficacy in % is determined. 100% means that all the caterpillars have been killed; 0% means that no caterpillar has been killed.
# [12] = application rate 4 ppm, after 5 days
# [13] = application rate 100 g/ha, after 5 days
# [14] = application rate 100 g/ha, after 7 days
smiles,measurement,setting,value
"CCS(=O)(=O)c1c(C(N)=O)nc2cc(C(F)(F)F)ccn12 [3-(Ethylsulfonyl)-7-(trifluoromethyl)imidazo[1,2-a]pyridine-2-carboxamide]",chromatographic logP,[1],1.57
CCS(=O)(=O)c1c(-c2nc3ccc(C(F)(F)F)cn3n2)ncc2ccccc12 [Example I-15],pest or weed control at 4 ppm,[2]; [12],100%
same,pest or weed control at 100 g/ha,[3]; [13],90%
"CCS(=O)(=O)c1c(C(=O)OC)nc2cc(C(F)(F)F)ccn12 [Methyl 3-(ethylsulfonyl)-7-(trifluoromethyl)imidazo[1,2-a]pyridine-2-carboxylate]",chromatographic logP,[1],2.15
"CCS(=O)(=O)c1c(-c2nc3cc(C(F)(F)F)ccc3n2C)nc2cc(C(F)(F)F)ccn12 [Example I-34, reference compound]",aphid kill at 20 ppm,[4],0%
same,Emax at 20 ppm,[5],0%
same,Emax at 20 ppm,[6],0%
same,Emax at 100 g/ha,[7],0%
same,Emax at 500 g/ha,[7]; 500 g/ha,0%
CCS(=O)(=O)c1c(-c2nc3ccc(C(F)(F)F)cn3n2)nc2cc(OCC(F)(F)F)ccn12 [Example I-06],pest or weed control at 4 ppm,[2]; [12],100%
same,pest or weed control at 20 g/ha,[8]; after 7 days,100%
same,pest or weed control at 100 g/ha,[8]; [14],100%
same,Emax at 20 ppm,[4],95%
same,Emax at 20 ppm,[5],99%
"FC(F)(F)c1cn2nc(-c3nc4ccccc4cc3Br)nc2cn1 [3-Bromo-2-[6-(trifluoromethyl)-[1,2,4]triazolo[1,5-a]pyrazin-2-yl]quinoline]",chromatographic logP,[1],2.98
"CCS(=O)(=O)c1c(C#N)nc2cc(C(F)(F)F)ccn12 [3-(Ethylsulfonyl)-7-(trifluoromethypimidazo[1,2-a]pyridine-2-carbonitrile]",chromatographic logP,[1],2.28
CCS(=O)(=O)c1c(-c2nc3ccc(C(F)(F)F)cn3n2)nc2cc(S(=O)(=O)C3CC3)ccn12 [Example I-13],pest or weed control at 4 ppm,[2]; [12],100%
same,pest or weed control at 100 g/ha,[3]; [13],100%
same,pest or weed control at 20 g/ha,[8]; after 7 days,83%
same,pest or weed control at 100 g/ha,[8]; [14],100%
same,Emax at 20 ppm,[4],99%
same,Emax at 20 ppm,[5],95%
same,Emax at 20 ppm,[6],100%
same,Emax at 100 g/ha,[7],100%
"CCS(=O)(=O)c1cc2ccccc2nc1-c1nc2cnc(C(F)(F)F)cn2n1 [Example I-02, 3-Ethylsulfonyl-2-[6-(trifluoromethyl)-[1,2,4]triazolo[1,5-a]pyrazin-2-yl]quinoline]",pest or weed control at 4 ppm,[2]; [12],90%
same,pest or weed control at 100 g/ha,[3]; [13],100%
same,pest or weed control at 100 g/ha,[8]; [14],100%
same,chromatographic logP,[1],2.44
CCS(=O)(=O)c1c(-c2nc3ccc(C(F)(F)F)cn3n2)nc2cc(NC(=O)OC)ccn12 [Example I-08],efficacy (kill),[9],90%
same,efficacy (kill),[10],100%
same,pest or weed control at 4 ppm,[2],100%
same,pest or weed control at 100 g/ha,[3],100%
same,pest or weed control at 100 g/ha,[8],83%
"CCSc1c(C(=O)OC)nc2cc(C(F)(F)F)ccn12 [Methyl 3-(ethylsulfanyl)-7-(trifluoromethyl)imidazo[1,2-a]pyridine-2-carboxylate]",chromatographic logP,[1],2.56
CCS(=O)(=O)c1c(-c2nc3cnc(C(F)(F)F)cn3n2)ncc2ccccc12 [Example I-16],pest or weed control at 4 ppm,[2]; [12],100%
same,pest or weed control at 100 g/ha,[3]; [13],100%
CCS(=O)(=O)c1c(-c2nc3ccc(C(F)(F)F)cn3n2)nc2n1CCCC2 [Example I-04],pest or weed control at 4 ppm,[2]; [12],100%
CCS(=O)(=O)c1c(-c2nc3ccc(C(F)(F)F)cn3n2)nc2cc(C3CC3)ccn12 [Example I-10],pest or weed control at 4 ppm,[2]; [12],100%
same,pest or weed control at 100 g/ha,[3]; [13],90%
same,pest or weed control at 20 g/ha,[8]; after 7 days,83%
same,efficacy,[11],83%
same,aphid kill at 20 ppm,[4],99%
same,Emax at 20 ppm,[5],100%
same,Emax at 20 ppm,[6],90%
same,Emax at 100 g/ha,[7],100%
CCS(=O)(=O)c1c(-c2nc3ccc(C(F)(F)F)cn3n2)nc2cc(NC(C)=O)ccn12 [Example I-07],efficacy (kill),[9],100%
same,pest or weed control at 4 ppm,[2]; [12],100%
CCS(=O)(=O)c1cc2ccccc2nc1-c1nc2ccc(C(F)(F)F)cn2n1 [Example I-03],pest or weed control at 4 ppm,[2]; [12],100%
same,pest or weed control at 100 g/ha,[3]; [13],90%
same,pest or weed control at 100 g/ha,[8]; [14],100%
CCS(=O)(=O)c1c(-c2nc3ccc(C(F)(F)F)cn3n2)nc2cc(C(=O)OC)ccn12 [Example I-11],pest or weed control at 4 ppm,[2]; [12],100%
N=C(Nc1cnc(C(F)(F)F)cn1)c1nc2ccccc2cc1Br [3-Bromo-N-[5-(trifluoromethyl)pyrazin-2-yl]quinoline-2-carboxamidine],chromatographic logP,[1],3.01
